Results from the NIST ThermoML archive (doi:10.1016/j.jct.2007.11.002).
± gives the expanded uncertainty stated by the source.

Details: 101.33 kPa, Liquid; for viscosity: Capillary tube (Ostwald / Ubbelohde) method; for mass density: Vibrating tube method

Compound | viscosity (298.15 K) [mPa·s] | mass density (298.15 K) [kg/m3] | viscosity (303.15 K) [mPa·s] | mass density (303.15 K) [kg/m3] | viscosity (313.15 K) [mPa·s] | mass density (313.15 K) [kg/m3] | viscosity (323.15 K) [mPa·s] | mass density (323.15 K) [kg/m3]
Cc1ccccc1 [toluene] | 0.553 ± 0.007 | 862.11 ± 0.23 | 0.523 ± 0.007 | 857.62 ± 0.23 | 0.471 ± 0.007 | 847.87 ± 0.25 | 0.422 ± 0.007 | 838.42 ± 0.29
c1ccccc1 [benzene] | 0.601 ± 0.007 | 873.58 ± 0.09 | 0.563 ± 0.007 | 868.23 ± 0.09 | 0.494 ± 0.007 | 857.38 ± 0.1 | 0.436 ± 0.007 | 846.62 ± 0.1
CN1CCOCC1 [N-methylmorpholine] | 0.881 ± 0.012 | 914.06 ± 0.74 | 0.864 ± 0.012 | 909.44 ± 0.73 | 0.833 ± 0.011 | 899.76 ± 0.72 | 0.814 ± 0.011 | 890.85 ± 0.71
C1CCCCC1 [cyclohexane] | 0.904 ± 0.009 | 773.25 ± 0.24 | 0.809 ± 0.009 | 769.18 ± 0.24 | 0.698 ± 0.008 | 759.58 ± 0.24 | 0.604 ± 0.008 | 750.03 ± 0.24
